Data on one molecule can be found in article PMC4399336 (2015).

This assay deals with 15 base pair dsDNA, double labeled (Alexa488 / Alexa568) (DNA, duplex) GGAGACCAGAGGCCT/AGGCCTCTGGTCTCC
In words: FRET and fluorescence lifetime titration (donor 517 nm, acceptor 600 nm). The following applies: 20 °C; 1 μM DNA; intercalation, qualitative; end-to-end distance ratio r1/r0 1.028; buffer not stated.

Molecules are shown by their SMILES.

Regarding `[Ru+2].c1ccc(-c2ccccn2)nc1.c1ccc(-c2ccccn2)nc1.c1ccc2nc3c4cccnc4c4ncccc4c3nc2c1`, the binding entry is “yes”.
